The values below come from patent publication US6762170B1, “2-(purin-9-yl)-tetrahydrofuran-3,4-diol derivatives” (SmithKlineBeecham Corporation, priority 1998, dated 2004).

Holding throughout (type): cell-based
The target of one assay is T1, Adenosine 1 receptor (Homo sapiens, UniProt P30542).
T1 construct: expressed in transfected cells; host or cells: Chinese hamster ovary (CHO) cells, co-transfected with a CRE-SPAP reporter
T1 sequence (P30542 1-326): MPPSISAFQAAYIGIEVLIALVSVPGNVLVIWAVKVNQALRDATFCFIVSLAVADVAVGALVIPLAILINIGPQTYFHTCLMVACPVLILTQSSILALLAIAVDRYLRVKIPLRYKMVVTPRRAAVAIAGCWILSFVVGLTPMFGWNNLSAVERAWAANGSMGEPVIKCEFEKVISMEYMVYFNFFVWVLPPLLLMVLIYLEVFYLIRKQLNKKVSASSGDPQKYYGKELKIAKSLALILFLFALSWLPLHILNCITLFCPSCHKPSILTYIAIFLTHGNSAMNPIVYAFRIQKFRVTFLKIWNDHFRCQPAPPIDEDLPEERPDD
Kind of assay: Agonist activity against adenosine 1 receptor subtype (CHO cells, forskolin-enhanced cAMP, SPAP reporter). The settings on record: EC50 ratio to NECA; transfected CHO cells, forskolin-enhanced cAMP reflected by SPAP. The method in brief: (§1)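 CHO cells expressed the human receptor plus a cAMP response element–driven SPAP reporter. Agonism was measured as SPAP change from forskolin-enhanced cAMP for A1 and A3, and from basal cAMP for A2a. EC50 is expressed as a ratio to that of NECA.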

In a further assay the target is T2, Adenosine 2a receptor (Homo sapiens, UniProt P29274).
T2 construct: expressed in transfected cells; host or cells: Chinese hamster ovary (CHO) cells, co-transfected with a CRE-SPAP reporter
T2 sequence (P29274 whole entry): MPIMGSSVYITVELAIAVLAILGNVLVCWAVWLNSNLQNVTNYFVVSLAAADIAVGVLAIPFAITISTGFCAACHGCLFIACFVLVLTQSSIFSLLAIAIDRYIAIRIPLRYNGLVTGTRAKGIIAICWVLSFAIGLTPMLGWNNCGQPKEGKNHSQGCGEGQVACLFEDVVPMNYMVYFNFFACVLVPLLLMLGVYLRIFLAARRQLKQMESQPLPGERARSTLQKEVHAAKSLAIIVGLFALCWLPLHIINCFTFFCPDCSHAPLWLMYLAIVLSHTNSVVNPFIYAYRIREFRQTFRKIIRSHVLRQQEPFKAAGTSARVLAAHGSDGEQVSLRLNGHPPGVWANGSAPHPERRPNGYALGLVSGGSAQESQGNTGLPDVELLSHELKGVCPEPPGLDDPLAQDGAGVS
Kind of assay: Agonist activity against adenosine 2a receptor subtype (CHO cells, cAMP response element/SPAP reporter). As to conditions: EC50 ratio to NECA; transfected CHO cells, basal cAMP reflected by SPAP. The method in brief: as §1

In another assay the target is T3, Adenosine 3 receptor (Homo sapiens, UniProt P0DMS8).
T3 construct: expressed in transfected cells; host or cells: Chinese hamster ovary (CHO) cells, co-transfected with a CRE-SPAP reporter
T3 sequence (P0DMS8 1-318): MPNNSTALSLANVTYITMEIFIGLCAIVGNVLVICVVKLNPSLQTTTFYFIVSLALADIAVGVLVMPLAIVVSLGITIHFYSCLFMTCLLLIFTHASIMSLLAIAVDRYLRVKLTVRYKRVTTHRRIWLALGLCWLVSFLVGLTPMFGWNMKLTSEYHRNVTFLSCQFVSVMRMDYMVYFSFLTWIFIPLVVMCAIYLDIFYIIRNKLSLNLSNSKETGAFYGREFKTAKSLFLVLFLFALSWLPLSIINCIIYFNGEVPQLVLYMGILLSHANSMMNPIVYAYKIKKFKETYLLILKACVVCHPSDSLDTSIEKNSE
Nature of the assay: Agonist activity against adenosine 3 receptor subtype (CHO cells, forskolin-enhanced cAMP, SPAP reporter). The settings on record: EC50 ratio to NECA; transfected CHO cells, forskolin-enhanced cAMP reflected by SPAP. The method in brief:
as §1

Where a name gives a salt, the structure may show the parent alone.

For `CCc1cc(C2OC(n3cnc4c(NC5CCN(C(C)=O)CC5)nc(NC(CO)Cc5ccccc5)nc43)C(O)C2O)on1` (stereo not drawn) [Example 28, 1-{4-[9-[5S-(3-Ethyl-isoxazol-5-yl)-3R,4S-dihydroxy-tetrahydro-furan-2R-yl]-2-(1S-hydroxymethyl-2-phenyl-ethylamino)-9H-purin-6-ylamino]-piperidin-1-yl}-ethanone formate], at Adenosine 1 receptor, the “A1 (EC50 values as a ratio of that of NECA)” value worked out at 165.8. Further, the “A2a (EC50 values as a ratio of that of NECA)” value on Adenosine 2a receptor turned out to be 14.5. In addition, the “A3 (EC50 values as a ratio of that of NECA)” value on Adenosine 3 receptor is more than 263.

Consider `CCc1cc(C2OC(n3cnc4c(NC(CO)Cc5ccccc5)nc(NCCN)nc43)C(O)C2O)on1` [Example 64, (2R,3R,4S,5S)-2-[2-(2-Amino-ethylamino)-6-(1S-hydroxymethyl-2-phenyl-ethylamino)-purin-9-yl]-5-(3-ethyl-isoxazol-5-yl)-tetrahydro-furan-3,4-diol diformate], for which the “A1 (EC50 values as a ratio of that of NECA)” value at Adenosine 1 receptor was 44.21. In addition, the “A2a (EC50 values as a ratio of that of NECA)” value at Adenosine 2a receptor came to 16.03. In addition, the “A3 (EC50 values as a ratio of that of NECA)” value on Adenosine 3 receptor is listed as more than 262.

Take `CCc1cc(C2OC(n3cnc4c(NCCC5CCCCC5)nc(NCCc5cn(C)cn5)nc43)C(O)C2O)on1.O=CO.O=CO` [Example 21, (2R,3R,4S,5S)-2-{6-(2-Cyclohexyl-ethylamino)-2-[2-(1-methyl-1H-imidazol-4-yl)-ethylamino]-purin-9-yl}5-(3-ethyl-isoxazol-5-yl)-tetrahydro-furan-3,4-diol diformate]: on Adenosine 1 receptor, the “A1 (EC50 values as a ratio of that of NECA)” value is reported as 1624.29. Moreover, at Adenosine 2a receptor, the “A2a (EC50 values as a ratio of that of NECA)” value is recorded as 1.55. Further, the “A3 (EC50 values as a ratio of that of NECA)” value at Adenosine 3 receptor was more than 267.

Turning to “(2R,3R,4S,5S)-2-{6-(1-Ethyl-propylamino)-2-[2-(1-methyl-1H-imidazol-4-yl)-ethylamino]-purin-9yl}-5-(3-methyl-isoxazol-5-yl)-tetrahydro-furan-3,4-diol diformate [Example 59]”, the “A1 (EC50 values as a ratio of that of NECA)” value at Adenosine 1 receptor stood at 194.3. The “A2a (EC50 values as a ratio of that of NECA)” value at Adenosine 2a receptor was 0.13. Besides, the “A3 (EC50 values as a ratio of that of NECA)” value on Adenosine 3 receptor was more than 385.

Regarding `CCc1cc(C2OC(n3cnc4c(NC5CCSCC5)nc(NCCNC(=N)N)nc43)C(O)C2O)on1` (stereo not drawn) [Example 9, N-{2-[9-[5S-(3-Ethyl-isoxazol-5-yl)-3R,4S-dihydroxy-tetrahydro-furan-2R-yl]-6-tetrahydro-thiopyran-4-ylamino)-9H-purin-2-ylamino]-ethyl}-guanidine diformate], the “A1 (EC50 values as a ratio of that of NECA)” value on Adenosine 1 receptor was found to be 132.3. For the same compound, the “A2a (EC50 values as a ratio of that of NECA)” value at Adenosine 2a receptor was found to be 2.05. The “A3 (EC50 values as a ratio of that of NECA)” value on Adenosine 3 receptor is more than 323.

For `CCc1cc([C@H]2O[C@@H](n3cnc4c(NC5CCOCC5)nc(NCCc5ccccn5)nc43)[C@H](O)[C@@H]2O)on1.O=CO.O=CO` [Example 13, (2S,3S,4R,5R)-2-(3-Ethyl-isoxazol-5-yl)-5-[2-(2-pyridin-2-yl-ethylamino)-6-(tetrahydro-pyran-4-ylamino)-purin-9-yl]-tetrahydro-furan-3,4-diol diformate], at Adenosine 1 receptor, the “A1 (EC50 values as a ratio of that of NECA)” value was found to be 61.9. Moreover, on Adenosine 2a receptor, the “A2a (EC50 values as a ratio of that of NECA)” value is listed as 3.03. The “A3 (EC50 values as a ratio of that of NECA)” value at Adenosine 3 receptor was more than 146.

For the compound `CCc1cc(C2OC(n3cnc4c(NCC(c5ccccc5)c5ccccc5)nc(NCCNC(=N)N)nc43)C(O)C2O)on1` (stereo not drawn) [Example 23, N-2-{6-(2,2-Diphenyl-ethylamino)-9-[5S-(3-ethyl-isoxazol-5-yl)-3R,4S-dihydroxy-tetrahydro-furan-2R-yl]-9H-purin-2-ylamino}-ethyl)-guanidine diformate], at Adenosine 1 receptor, the “A1 (EC50 values as a ratio of that of NECA)” value is on record as “>=3263”. Besides, on Adenosine 2a receptor, the “A2a (EC50 values as a ratio of that of NECA)” value was 13.4. Further, the “A3 (EC50 values as a ratio of that of NECA)” value on Adenosine 3 receptor is reported as more than 282.

For the compound `CCC(CC)Nc1nc(NCCc2cn(C)cn2)nc2c1ncn2C1OC(c2cc(C=NO)no2)C(O)C1O` (stereo not drawn) [Example 50, 5-(5R-{6-Ethyl-propylamino)-2-[2(1-methyl-1H-imidazol-4-yl)-ethylamino]-purin-9-yl}-3S,4R-dihydroxy-tetrahydro-furan-2S-yl)-isoxazole-3-carbaldehyde oxime diformate], on Adenosine 1 receptor, the “A1 (EC50 values as a ratio of that of NECA)” value is more than 6188. For the same compound, the “A2a (EC50 values as a ratio of that of NECA)” value on Adenosine 2a receptor was 7.26. Moreover, the “A3 (EC50 values as a ratio of that of NECA)” value at Adenosine 3 receptor is recorded as more than 113.

For `CCc1cc(C2OC(n3cnc4c(NC(CC)CC)nc(NC5CCC(N)CC5)nc43)C(O)C2O)on1.O=CO.O=CO` [Example 39, (2R,3R,4S,5S)-2-[2(trans-4-Amino-cyclohexylamino)-6(1-ethyl-propylamino)-purin-9-yl]-5-(3-ethyl-isoxazol-5-yl)-tetrahydro-furan-3,4-diol diformate], the “A1 (EC50 values as a ratio of that of NECA)” value on Adenosine 1 receptor was determined as 86.8. Besides, the “A2a (EC50 values as a ratio of that of NECA)” value at Adenosine 2a receptor is 2.12. In addition, the “A3 (EC50 values as a ratio of that of NECA)” value at Adenosine 3 receptor is more than 85.

Consider `CCc1cc([C@H]2O[C@@H](n3cnc4c(NC(CC)CC)nc(NC5CCCC5)nc43)[C@H](O)[C@@H]2O)on1.O=CO` [Example 46, (2R,3R,4S,5S)-2-[2-(Cyclopentylamino)-6-(1-ethyl-propylamino)-purin-9-yl]-5-(3-ethyl-isoxazol-5-yl)-tetrahydro-furan-3,4-diol formate], for which the “A1 (EC50 values as a ratio of that of NECA)” value on Adenosine 1 receptor stood at 148.72. In addition, the “A2a (EC50 values as a ratio of that of NECA)” value on Adenosine 2a receptor came out at 20.06. The “A3 (EC50 values as a ratio of that of NECA)” value on Adenosine 3 receptor is more than 518.

Regarding `CCc1cc(C2OC(n3cnc4c(NCC(c5ccccc5)c5ccccc5)nc(NC(CO)Cc5ccccc5)nc43)C(O)C2O)on1` [Example 17, (2R,3R,4S,5S)-2-[6-(2,2-Diphenyl-ethylamino)-2-(1S-hydroxymethyl-2-phenyl-ethylamino)-purin-9-yl]-5-(3-ethyl-isoxazol-5-yl)-tetrahydro-furan-3,4-diol formate], the “A1 (EC50 values as a ratio of that of NECA)” value on Adenosine 1 receptor stood at 1172. For the same compound, the “A2a (EC50 values as a ratio of that of NECA)” value at Adenosine 2a receptor is reported as 0.34. In addition, the “A3 (EC50 values as a ratio of that of NECA)” value on Adenosine 3 receptor is on record as more than 298.

On to `CCc1cc(C2OC(n3cnc4c(NCCS(=O)(=O)NC)nc(NCCNC(=N)N)nc43)C(O)C2O)on1` (stereo not drawn) [Example 25, 2-[2-9-[5S-(3-Ethyl-isoxazol-5-yl)-3R,4S-dihydroxy-tetrahydro-furan-2R-yl]-2-(2-guanidino-ethylamino)-9H-purin-6-ylamino]-ethanesulfonic acid methylamide diformate], for which, on Adenosine 1 receptor, the “A1 (EC50 values as a ratio of that of NECA)” value is 103.8. For the same compound, at Adenosine 2a receptor, the “A2a (EC50 values as a ratio of that of NECA)” value was 5.46. For the same compound, the “A3 (EC50 values as a ratio of that of NECA)” value at Adenosine 3 receptor is given as more than 198.

In the case of `CCC(CC)Nc1nc(NCCc2cn(C)cn2)nc2c1ncn2[C@@H]1O[C@H](c2cc(C(C)O)no2)[C@@H](O)[C@H]1O.O=CO.O=CO` (stereo partly drawn) [Example 58, (2R,3R,4S,5S)-2-{6-(1-Ethyl-propylamino)-2-[2-(1-methyl-1H-imidazol-4-yl)-ethylamino]-purin-9-yl}-5-[3-(1-hydroxy-ethyl)-isoxazol-5-yl]-tetrahydro-furan-3,4-diol diformate], on Adenosine 1 receptor, the “A1 (EC50 values as a ratio of that of NECA)” value is listed as 812.2. Further, the “A2a (EC50 values as a ratio of that of NECA)” value on Adenosine 2a receptor was 0.244. Also, the “A3 (EC50 values as a ratio of that of NECA)” value at Adenosine 3 receptor is recorded as more than 525.

In the case of `CCc1cc(C2OC(n3cnc4c(N)nc(NCCc5ccc(S(N)(=O)=O)cc5)nc43)C(O)C2O)on1` (stereo not drawn) [Example 18, 4-(2-{6-Amino-9-[5S-(3-ethyl-isoxazol-5-yl)-3R,4S-dihydroxy-tetrahydro-furan-2R-yl]-9H-purin-2-ylamino}-benzenesulfonamide formate], at Adenosine 1 receptor, the “A1 (EC50 values as a ratio of that of NECA)” value is on record as 2580. Moreover, the “A2a (EC50 values as a ratio of that of NECA)” value at Adenosine 2a receptor is on record as 0.72. Further, the “A3 (EC50 values as a ratio of that of NECA)” value at Adenosine 3 receptor was more than 460.
